Measurements reported in publication PMC6009938, “The use of dimethylsulfoxide as a solvent in enzyme inhibition studies: the case of aldose reductase” (Journal of Enzyme Inhibition and Medicinal Chemistry, 2017).

Legend:
Type in all cases: biochemical
[1] = biological target: T1, human recombinant AR (hAR) (Homo sapiens, UniProt P15121); assay: Aldose reductase assay, GSHNE reduction; conditions: up to 100 mM in the assay mixture; different substrate concentrations
T1 construct: made in house
Procedure: (§1) The AR activity was determined at 37 °C as previously described, following the decrease in absorbance at 340 nm due to NADPH oxidation (ε 340 = 6.22 mM^−1·cm^−1) through a Biochrom Libra S60 spectrophotometer (Biochrom, Cambridge, United Kingdom). The standard assay mixture contained a 0.25 M sodium phosphate buffer pH 6.8, 0.18 mM NADPH, 0.4 M ammonium sulphate, 0.5 mM EDTA and 4.7 mM GAL. One unit of enzyme activity is the amount that catalyses the conversion of 1 µmol of substrate/min in the above assay conditions. These assay conditions were also adopted to assess the effectiveness of inhibitors when L-idose, trans-4-hydroxy-2,3-nonenal (HNE), or 3-glutathionyl-4-hydroxynonenal (GSHNE) was used as a substrate instead of GAL.
The human recombinant AR (hAR) was expressed and purified as previously described. […] The specific activity of purified hAR was 5.3 U/mg. The purified enzyme was stored at −80 °C in a 10 mM sodium phosphate buffer pH 7.0 containing 2 mM DTT and 30% (w/v) glycerol. Before use, the enzyme was extensively dialysed against a 10 mM sodium phosphate buffer pH 7.0.
The protein concentration was determined according to Bradford[35], using BSA as a standard protein. HNE was prepared as previously described. […] The residual GSH was determined as previously described.

[2] = biological target: T1, human recombinant AR (hAR); assay: Aldose reductase assay, GAL reduction
Procedure: (§2) One unit of enzyme activity is the amount that catalyses the conversion of 1 µmol of substrate/min in the above assay conditions. These assay conditions were also adopted to assess the effectiveness of inhibitors when L-idose, trans-4-hydroxy-2,3-nonenal (HNE), or 3-glutathionyl-4-hydroxynonenal (GSHNE) was used as a substrate instead of GAL.
(§3) The human recombinant AR (hAR) was expressed and purified as previously described. […] The purified enzyme was stored at −80 °C in a 10 mM sodium phosphate buffer pH 7.0 containing 2 mM DTT and 30% (w/v) glycerol. Before use, the enzyme was extensively dialysed against a 10 mM sodium phosphate buffer pH 7.0.

[3] = biological target: T1, human recombinant AR (hAR); assay: Aldose reductase assay, HNE reduction (NADPH oxidation at 340 nm); conditions: for Inhibition model / Ki′: substrate HNE
Procedure: as §1, §3
The protein concentration was determined according to Bradford[35], using BSA as a standard protein. HNE was prepared as previously described. GSHNE was prepared as previously described[37] by incubation of GSH and HNE, monitoring the time course of GSH consumption. The residual GSH was determined as previously described.

[4] = biological target: T1, human recombinant AR (hAR); assay: Aldose reductase assay, L-idose reduction (NADPH oxidation at 340 nm); conditions: for Inhibition model / Ki / Ki′: substrate L-idose
Procedure: as §2, §3

[5] = DMSO 40 mM, apparent, ESI complex
[6] = DMSO 100 mM, apparent, ESI complex
[7] = DMSO 200 mM, apparent, ESI complex
[8] = No DMSO, dissociation constant of ESI complex

| SMILES | effect on enzyme activity with GSHNE as substrate [1] | effect on the reduction of GAL catalysed by AR [2] | Inhibition model [3] | Inhibition model [4] | Ki′ [3, 5] [µM] | Ki′ [3, 6] [µM] | Ki′ [3, 7] [µM] | Ki′ [3, 8] [µM] | Ki ([4]; DMSO 40 mM, apparent) [µM] | Ki′ [4, 5] [µM] | Ki ([4]; DMSO 100 mM, apparent) [µM] | Ki′ [4, 6] [µM] | Ki ([4]; DMSO 200 mM, apparent) [µM] | Ki′ [4, 7] [µM] | Ki ([4]; No DMSO) [µM] | Ki′ [4, 8] [µM] | Inhibition model ([3]; listed as rutin) | Inhibition model ([4]; listed as rutin) | inhibition of AR activity ([3]; 0.7% (v/v) (approximately 0.17 M), HNE 40–110 µM) | inhibition of AR activity ([4]; 0.7% (v/v) (approximately 0.17 M), L-idose 0.4–4 mM) |
| --- | --- | --- | --- | --- | --- | --- | --- | --- | --- | --- | --- | --- | --- | --- | --- | --- | --- | --- | --- | --- |
| C[S+](C)[O-] [DMSO, dimethyl sulfoxide] | no effect of interference on the enzyme activity | no effect | mixed type of inhibition | competitive inhibition | – | – | – | – | – | – | – | – | – | – | – | – | – | – | – | – |
| COc1ccc(CCC(=O)c2c(O)cc(O[C@@H]3O[C@H](CO)[C@@H](O)[C@H](O)[C@H]3O[C@@H]3O[C@@H](C)[C@H](O)[C@@H](O)[C@H]3O)cc2O)cc1O [NHDC, neohesperidin dihydrochalcone] | – | – | uncompetitive inhibitors | mixed inhibitors | 134 ± 11 | 150 ± 22 | 199 ± 6 | 122 ± 19 | 114 ± 15 | 286 ± 53 | 125 ± 16 | 230 ± 35 | 194 ± 17 | 283 ± 2 | 93 ± 17 | 292 ± 17 | – | – | – | – |
| O=C(CCc1ccc(O)cc1)c1c(O)cc(O)cc1O [Phloretin, phloretin] | – | – | Mixed | Mixed | 64.7 ± 1.4 | 73.4 ± 7.5 | 99.5 ± 7.3 | 56.5 ± 4.5 | – | 62.9 ± 2.3 | – | 50.3 ± 4.8 | – | 60.9 ± 2.1 | – | 52.5 ± 3.8 | – | – | – | – |
| C[C@@H]1O[C@@H](OC[C@H]2O[C@@H](Oc3c(-c4ccc(O)c(O)c4)oc4cc(O)cc(O)c4c3=O)[C@H](O)[C@@H](O)[C@@H]2O)[C@H](O)[C@H](O)[C@H]1O [Rutin, rutin] | – | – | Uncompetitive | Mixed | 10.5 ± 2.0 | 12.8 ± 1.9 | 16.5 ± 1.9 | 9.2 ± 0.9 | 20.3 ± 1.1 | 7.6 ± 1.2 | 24.8 ± 3.8 | 11.7 ± 0.5 | 45.6 ± 5.5 | 12.7 ± 2.0 | 17.8 ± 3 | 9.3 ± 1.1 | uncompetitive inhibitors | mixed inhibitors | – | – |
| CO [methanol] | – | – | – | – | – | – | – | – | – | – | – | – | – | – | – | – | – | – | less than 5% | less than 5% |
